Measurements reported in patent US20080207724A1, “Use of Inhibitors of Histone Deacteylases in Combination With Compounds Acting as Nsaid for the Therapy of Human Diseases” (priority 2005, published 2008).

Experiments:
THP-1 monocytes = assay: Prostaglandin secretion, Celecoxib plus HDAC inhibitor, THP-1 monocytes; assay type: cell-based, human; conditions: in combination with Celecoxib, FIG. 4
Experimental: In parallel, Cox-2 protein levels were reduced as already described.
(§1) In detail, cells were seeded at a density of 7,5×10^4 per well in 24 well plates. Supernatants were analyzed in a dilution of 1:3 in duplicates with the prostaglandin E2 EIA Kit from Cayman according to the manufacture's instructions. Bars show the mean of two values. Cell extracts were prepared by removing growth medium completely and adding of 200 μl of Laemmli Sample buffer per well. Subsequently, 60 μl were loaded on 8% acrylamide gels and subjected to discontinuous electrophoresis. Proteins blotted onto PVDF membranes which were probed with a goat anti-Cox-2 antibody (St. Cruz, scl 747) or a mouse anti-pan-actin (to analyze the expression of this control protein) antibody (Ab-5, NeoMarkers).

Cox-2 [1] = assay: Cox-2 expression (Western blot / RT-PCR) in various cell types; assay type: cell-based, human; conditions: for Expression of Cox-2 on RNA and protein level: several systems: A-549, SK-Mel, HT-29, MDA-MB-231, THP-1, primary human lymphocytes and macrophages, FIGS. 1 and 2
Experimental: In HT-29 colon carcinoma cells Cox-2 expression was induced by treatment with 100 ng/ml TNF-α for 4 h.
Cells were seeded at densities between 5×10^4 and 1×10^5 cells per well of 24 well plates. Lysis was done by removing growth medium and adding 200 μl of Laemmli sample buffer per well. 60 μl were loaded on 8% acrylamide gels and subjected to discontinuous electrophoresis. Proteins blotted onto PVDF membranes were probed with a goat-anti-Cox-2 antibody (St. Cruz, sc1747) or a mouse anti-pan-actin antibody (Ab-5, NeoMarkers).
as §1, with “electrophoresis.” for “electrophoresis. Proteins blotted onto PVDF membranes which were probed with a goat anti-Cox-2 antibody (St. Cruz, scl 747) or a mouse anti-pan-actin (to analyze the expression of this control protein) antibody (Ab-5, NeoMarkers).”

TNF-α, IFN-γ and IL-6 = assay: Semi quantitative RT-PCR of cytokine RNA in LPS-induced THP-1 cells; assay type: cell-based, human; conditions: THP-1 cells differentiated with TPA; 1 mM VPA or 10 μM G2M-707 over night, then 10 μg/ml LPS 6 h; FIG. 1A
Experimental: (§2) THP-1 cells were induced to differentiate by addition of 20 ng/ml TPA to the growth medium for 3d. Adherent cells were seeded at a density of 5×10^5 cells per well of a 6-well plate, and were incubated with 1 mM VPA or 10 μM G2M-707 over night (FIG. 1A). Cox-2 expression was then induced by addition of 10 μg/ml LPS for 6 h. RNA was prepared using the RNeasy Kit from Qiagen according to the manufacturer's instructions. Reverse transcription was done with 1 μg of RNA in a volume of 20 μl. 1 μl was used for each PCR reaction with specific primers for the indicated genes.

TNF-α = assay: Acute LPS-induced inflammation model, serum TNF-α ELISA; assay type: in vivo; conditions: 3H1 mice; i.p. 1 h before LPS (50 μg per mouse); blood 1 h after LPS; VPA 400 mg/kg/d, G2M-707 1 mg/mouse/d; FIG. 6 lower panel
Experimental: To evaluate the ability of HDAC inhibitors to inhibit soluble TNF-α secretion in vivo, an acute LPS-induced inflammation model in 3H1 mice was used. The mice were injected i.p. with substances tested 1 h before the i.p. injection of LPS. Blood samples were drawn 1 h after LPS stimulus and the TNF-α levels in the serum were determined using a TNF-α ELISA assay. As shown in FIG. 6 (lower panel), VPA and G2M-707 pretreatment led to a 60% reduction in absolute TNF-α serum levels in comparison to the control mice.
In detail, mice were treated with VPA (400 mg/kg/d, n=8), G2M-701 (1 mg/mouse/d, n=4), G2M-707 (1 mg/mouse/d, n=4) or with 200 μl PBS (control, n=8) 1 h before inflammation was induced with 50 μg LPS (Sigma) per mouse. One hour after the LPS treatment, blood was taken by cardiac puncture and serum was isolated. The serum was tested in a TNF-α sandwich ELISA module from Bender MedSystems. The assay was performed as described in the manufacturer's manual. ABTS was used as a substrate and measuring was accomplished with a 96-well plate reader at a wavelength of 405 nm. Absolute OD levels at 405 nm are given.

COX-2 RNA = assay: Semi quantitative RT-PCR of COX-2 RNA in LPS-induced THP-1 cells; assay type: cell-based, human; conditions: THP-1 cells differentiated with TPA; 1 mM VPA or 10 μM G2M-707 over night, then 10 μg/ml LPS 6 h; FIG. 1A
Experimental: as §2

[2] = test system: MDA-MB-231 mammary carcinoma cells; assay: Prostaglandin secretion, Celecoxib plus HDAC inhibitor, MDA-MB-231 cells; assay type: cell-based, human; conditions: in combination with Celecoxib, FIG. 4
Experimental: as §1, with “electrophoresis.” for “electrophoresis. Proteins blotted onto PVDF membranes which were probed with a goat anti-Cox-2 antibody (St. Cruz, scl 747) or a mouse anti-pan-actin (to analyze the expression of this control protein) antibody (Ab-5, NeoMarkers).”

prostaglandin E2 = assay: Prostaglandin levels in liver extracts of APCmin mice (ex vivo cyclooxygenase activity); design: species or system mouse; conditions: liver taken 3 hours after final dose, same treatment as adenoma study, FIG. 5b
Experimental: (§3) Control animals were injected (i.p.) with PBS. […] At sacrifice entire intestinal tracts were opened longitudinally and fixed in 10% phosphate buffered formaldehyde for 24 hours followed by ethanol-fixation in 50% ethanol for three days. […] Cyclooxygenase activity was assessed ex vivo in hepatic tissue as described (Reuter et al., 2002; BMC Cancer 2:19). Briefly, mice were euthanized 3 hours following the final dose of vehicle or drugs and a sample of liver tissue (−100 mg) was obtained. The samples were then placed into microcentrifuge tubes containing 1 ml of sodium phosphate buffer (10 mM, pH 7.4) and finely minced with scissors for 15 seconds. Samples were then incubated for 20 min at […] in a shaking water bath. After the incubation period, samples were centrifuged at 9000×g for 30 seconds and the supernatants collected. Supernatants were flash frozen in liquid nitrogen and stored at […] for subsequent determination of prostaglandin E2 content. PGE2 concentrations were determined in duplicates after 1:20 dilution of supernatants using a commercially available competitive Enzyme Immunoassay (Cayman Chemical).

[3] = test system: collagen induced arthritis in DBA/1 mice; assay: Therapeutic collagen induced arthritis (CIA) model, clinical severity score; assay type: in vivo; conditions: DBA/1 mice with CIA, 15 days; VPA 2×400 mg/kg/d i.p., G2M-707 2×1 mg/mouse/d i.p.; versus control group; FIG. 6 upper panel
Experimental: To evaluate this anti-inflammatory potency of HDAC inhibitors in a therapeutic in vivo inflammation model we applied VPA and G2M-707 to mice that had developed collagen induced arthritis (CIA).
Prednisolon, a corticosteroid drug in clinical use for RA, was used as a positive control in this study.
In detail, in this therapeutic CIA model, DBA/1 female mice of age 7 weeks were immunized with 100 μg of chicken type II collagen (Chondrex) in CFA. Development of arthritis started 21 to 28 days after immunization and reached an incidence of 93% after 6 weeks. The severity was medium to high and reached a mean score of 10.3 (maximum score 15) in untreated animals. The mice were monitored daily for signs of arthritis using an established scoring system. At the first sign of arthritis, the affected mice were assigned to a treatment group. The mice were treated for 15 days with vehicle control or VPA at 2×400 mg/kg/d i.p. or G2M-707 at 2×1 mg/mouse/d i.p. or Prednisolon at 2×20 mg/kg/d (i.p.). Clinical severity of arthritis was assessed based on the appearance of each paw and subjectively graded on a scale of 0 to 4. The scores of each limb were summed, giving a maximum severity score of 16. […] After onset of disease the animals were scored 3 times a week.

Cox-2 [4] = assay: Semi quantitative RT-PCR of Cox-2 in peripheral blood lymphocytes of VPA-treated patients; assay type: in vivo, human; conditions: patients treated with 30 mg/kg/d or 120 mg/kg/d VPA; control gene GAPDH unchanged; FIG. 1B
Experimental: Semi quantitative RT-PCR was also performed with RNA isolated form peripheral blood lymphocytes of patients treated with doses 30 mg/kg/d (Patient 1) or 120 mg/kg/d VPA (Patient 2) respectively.

[5] = test system: adenomas in C57BL/6J-APCmin/+ mice; assay: Adenoma number in the APCmin mouse model; assay type: in vivo; conditions: four weeks, VPA sodium salt 2×400 mg/kg/day i.p., Celecoxib 1250 ppm in diet, combination same dosages, FIG. 5A
Experimental: as §3

SMILES | prostaglandin levels, HDAC inhibitor added to Celecoxib (THP-1 monocytes) | Expression of Cox-2 on RNA and protein level (Cox-2 [1]) | TNF-α, IFN-γ and IL-6 RNA (TNF-α, IFN-γ and IL-6) | reduction in absolute TNF-α serum levels in comparison to the control mice (TNF-α) [%] | COX-2 RNA (COX-2 RNA) | repression of prostaglandin secretion by Celecoxib, HDAC inhibitor added [2] | Cox-2 protein levels (Cox-2 [1]; MDA-MB-231 cells, VPA together with Celecoxib, FIG. 4) | prostaglandin levels in liver extracts (prostaglandin E2) | clinical severity scores (sum score) [3] | Cox-2 RNA in peripheral blood lymphocytes of patients (Cox-2 [4]) | number of adenomas [5]
CC(/C=C/C(=O)NO)=C\[C@@H](C)C(=O)c1ccc(N(C)C)cc1 [TSA, Trichostatin A] | reduce the prostaglandin levels further | downregulated | – | – | – | – | – | – | – | – | –
CCCC(CCC)C(=O)O [VPA, 2-propyl-pentanoic acid] | – | downregulated | downregulation | 60 | downregulation | dose dependently enhance | reduced | decrease | efficiently reduced | downregulation | significantly reduces
